Test results as given in PubChem BioAssay (NCI).
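Where inhibition never reached the appropriate level, the endpoint shown equals the highest concentration tested. Otherwise, values were interpolated linearly from a five-concentration, 48-hour dose response in 96-well plates. TGI: concentration producing complete growth inhibition.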

Key:
Assay in all cases: growth of human tumour cells (NCI), 48 h
HOP-62 NSCLC = tested on: HOP-62 NSCLC
OVCAR-4 ovarian = tested on: OVCAR-4 ovarian
NCI-H460 lung = tested on: NCI-H460 lung
HT29 colon = tested on: HT29 colon
OVCAR-5 ovarian = tested on: OVCAR-5 ovarian
SNB-75 CNS = tested on: SNB-75 CNS
SF-295 CNS = tested on: SF-295 CNS
UACC-62 melanoma = tested on: UACC-62 melanoma
MCF7 breast = tested on: MCF7 breast
DU-145 prostate = tested on: DU-145 prostate
HOP-92 NSCLC = tested on: HOP-92 NSCLC
SK-MEL-28 melanoma = tested on: SK-MEL-28 melanoma
A498 renal = tested on: A498 renal
786-0 renal = tested on: 786-0 renal
RPMI-8226 leukemia = tested on: RPMI-8226 leukemia
CAKI-1 renal = tested on: CAKI-1 renal
HCT-15 colon = tested on: HCT-15 colon
SN12C renal = tested on: SN12C renal
HCC-2998 colon = tested on: HCC-2998 colon
NCI/ADR-RES ovarian = tested on: NCI/ADR-RES ovarian
MDA-MB-435 = tested on: MDA-MB-435
TK-10 renal = tested on: TK-10 renal
UO-31 renal = tested on: UO-31 renal
MDA-MB-231 breast = tested on: MDA-MB-231 breast
SK-OV-3 ovarian = tested on: SK-OV-3 ovarian
NCI-H23 lung = tested on: NCI-H23 lung
SW-620 colon = tested on: SW-620 colon
OVCAR-8 ovarian = tested on: OVCAR-8 ovarian
PC-3 prostate = tested on: PC-3 prostate
HL-60(TB) leukemia = tested on: HL-60(TB) leukemia
NCI-H522 lung = tested on: NCI-H522 lung
SR leukemia = tested on: SR leukemia
T-47D breast = tested on: T-47D breast
IGROV1 ovarian = tested on: IGROV1 ovarian
COLO 205 colon = tested on: COLO 205 colon
MALME-3M melanoma = tested on: MALME-3M melanoma
SF-268 CNS = tested on: SF-268 CNS
SK-MEL-2 melanoma = tested on: SK-MEL-2 melanoma
NCI-H226 lung = tested on: NCI-H226 lung
CCRF-CEM leukemia = tested on: CCRF-CEM leukemia
SF-539 CNS = tested on: SF-539 CNS
OVCAR-3 ovarian = tested on: OVCAR-3 ovarian
RXF 393 renal = tested on: RXF 393 renal
SNB-19 CNS = tested on: SNB-19 CNS
ACHN renal = tested on: ACHN renal
K-562 leukemia = tested on: K-562 leukemia
M14 melanoma = tested on: M14 melanoma
LOX IMVI melanoma = tested on: LOX IMVI melanoma
EKVX NSCLC = tested on: EKVX NSCLC
U251 CNS = tested on: U251 CNS
MDA-N = tested on: MDA-N
UACC-257 melanoma = tested on: UACC-257 melanoma
BT-549 breast = tested on: BT-549 breast
MOLT-4 leukemia = tested on: MOLT-4 leukemia
HCT-116 colon = tested on: HCT-116 colon
HS 578T breast = tested on: HS 578T breast
A549 NSCLC = tested on: A549 NSCLC
KM12 colon = tested on: KM12 colon
SK-MEL-5 melanoma = tested on: SK-MEL-5 melanoma

## COc1cc2c(cc1OC)[C@H]1C(=O)c3cc4c(cc3[C@H]1N(C)C2=O)OCO4
HOP-62 NSCLC
  TGI: > 79.2 µM
OVCAR-4 ovarian
  TGI: > 100 µM
NCI-H460 lung
  TGI: > 100 µM
HT29 colon
  TGI: > 100 µM
OVCAR-5 ovarian
  TGI: > 100 µM
SNB-75 CNS
  TGI: > 100 µM
SF-295 CNS
  TGI: > 69.9 µM
UACC-62 melanoma
  TGI: > 100 µM
MCF7 breast
  TGI: > 100 µM
DU-145 prostate
  TGI: > 100 µM
HOP-92 NSCLC
  TGI: > 89.8 µM
SK-MEL-28 melanoma
  TGI: > 100 µM
A498 renal
  TGI: > 79.5 µM
786-0 renal
  TGI: > 45.2 µM
RPMI-8226 leukemia
  TGI: > 100 µM
CAKI-1 renal
  TGI: > 100 µM
HCT-15 colon
  TGI: > 100 µM
SN12C renal
  TGI: > 100 µM
HCC-2998 colon
  TGI: > 100 µM
NCI/ADR-RES ovarian
  TGI: > 100 µM
MDA-MB-435
  TGI: > 100 µM
TK-10 renal
  TGI: > 100 µM
UO-31 renal
  TGI: > 39.3 µM
MDA-MB-231 breast
  TGI: > 100 µM
SK-OV-3 ovarian
  TGI: > 100 µM
NCI-H23 lung
  TGI: > 74.1 µM
SW-620 colon
  TGI: > 100 µM
OVCAR-8 ovarian
  TGI: > 100 µM
PC-3 prostate
  TGI: > 100 µM
HL-60(TB) leukemia
  TGI: > 68.6 µM
NCI-H522 lung
  TGI: > 75 µM
SR leukemia
  TGI: > 100 µM
T-47D breast
  TGI: > 100 µM
IGROV1 ovarian
  TGI: > 100 µM
COLO 205 colon
  TGI: > 46.4 µM
MALME-3M melanoma
  TGI: > 89.5 µM
SF-268 CNS
  TGI: > 100 µM
SK-MEL-2 melanoma
  TGI: > 100 µM
NCI-H226 lung
  TGI: > 100 µM
CCRF-CEM leukemia
  TGI: 17 µM
SF-539 CNS
  TGI: > 77.8 µM
OVCAR-3 ovarian
  TGI: > 100 µM
RXF 393 renal
  TGI: > 100 µM
SNB-19 CNS
  TGI: > 100 µM
ACHN renal
  TGI: > 100 µM
K-562 leukemia
  TGI: > 100 µM
M14 melanoma
  TGI: > 76.6 µM
LOX IMVI melanoma
  TGI: > 40.8 µM
EKVX NSCLC
  TGI: > 100 µM
U251 CNS
  TGI: > 100 µM
MDA-N
  TGI: > 100 µM
UACC-257 melanoma
  TGI: > 100 µM
BT-549 breast
  TGI: > 100 µM
MOLT-4 leukemia
  TGI: 5.7 µM
HCT-116 colon
  TGI: > 100 µM
HS 578T breast
  TGI: > 100 µM
A549 NSCLC
  TGI: > 100 µM
KM12 colon
  TGI: > 100 µM
SK-MEL-5 melanoma
  TGI: > 48.8 µM

## CC1=CC(c2ccccc2)n2c(nc3cc4ccccc4cc32)N1 (centres undefined)
OVCAR-4 ovarian
  TGI: > 100 µM
NCI-H460 lung
  TGI: > 100 µM
HT29 colon
  TGI: > 100 µM
OVCAR-5 ovarian
  TGI: > 100 µM
SNB-75 CNS
  TGI: > 100 µM
SF-295 CNS
  TGI: > 100 µM
UACC-62 melanoma
  TGI: > 100 µM
MCF7 breast
  TGI: > 100 µM
DU-145 prostate
  TGI: > 100 µM
HOP-92 NSCLC
  TGI: > 100 µM
SK-MEL-28 melanoma
  TGI: > 100 µM
A498 renal
  TGI: > 100 µM
786-0 renal
  TGI: > 100 µM
RPMI-8226 leukemia
  TGI: > 100 µM
CAKI-1 renal
  TGI: > 100 µM
HCT-15 colon
  TGI: > 100 µM
HCC-2998 colon
  TGI: > 100 µM
NCI/ADR-RES ovarian
  TGI: > 100 µM
MDA-MB-435
  TGI: > 100 µM
TK-10 renal
  TGI: > 100 µM
UO-31 renal
  TGI: > 100 µM
MDA-MB-231 breast
  TGI: > 100 µM
SK-OV-3 ovarian
  TGI: > 100 µM
NCI-H23 lung
  TGI: > 100 µM
SW-620 colon
  TGI: > 100 µM
OVCAR-8 ovarian
  TGI: > 100 µM
PC-3 prostate
  TGI: > 100 µM
HL-60(TB) leukemia
  TGI: > 100 µM
SR leukemia
  TGI: > 100 µM
T-47D breast
  TGI: > 100 µM
IGROV1 ovarian
  TGI: > 100 µM
COLO 205 colon
  TGI: > 100 µM
MALME-3M melanoma
  TGI: > 100 µM
SF-268 CNS
  TGI: > 100 µM
SK-MEL-2 melanoma
  TGI: > 100 µM
NCI-H226 lung
  TGI: > 100 µM
CCRF-CEM leukemia
  TGI: > 100 µM
SF-539 CNS
  TGI: > 100 µM
OVCAR-3 ovarian
  TGI: > 100 µM
RXF 393 renal
  TGI: > 100 µM
SNB-19 CNS
  TGI: > 100 µM
ACHN renal
  TGI: > 100 µM
K-562 leukemia
  TGI: > 100 µM
M14 melanoma
  TGI: > 100 µM
LOX IMVI melanoma
  TGI: > 100 µM
EKVX NSCLC
  TGI: > 100 µM
U251 CNS
  TGI: > 100 µM
MDA-N
  TGI: > 100 µM
UACC-257 melanoma
  TGI: > 100 µM
BT-549 breast
  TGI: > 100 µM
MOLT-4 leukemia
  TGI: > 100 µM
HCT-116 colon
  TGI: > 100 µM
HS 578T breast
  TGI: > 100 µM
A549 NSCLC
  TGI: > 100 µM
KM12 colon
  TGI: > 100 µM
SK-MEL-5 melanoma
  TGI: > 100 µM

## O=C(O)CNC(=O)c1cccc2c(=O)c3ccccc3[nH]c12
HOP-62 NSCLC
  TGI: > 100 µM
OVCAR-4 ovarian
  TGI: > 100 µM
NCI-H460 lung
  TGI: > 100 µM
HT29 colon
  TGI: > 100 µM
OVCAR-5 ovarian
  TGI: > 100 µM
SNB-75 CNS
  TGI: > 100 µM
SF-295 CNS
  TGI: > 100 µM
UACC-62 melanoma
  TGI: > 100 µM
MCF7 breast
  TGI: > 100 µM
DU-145 prostate
  TGI: > 100 µM
HOP-92 NSCLC
  TGI: > 100 µM
SK-MEL-28 melanoma
  TGI: > 100 µM
A498 renal
  TGI: > 100 µM
786-0 renal
  TGI: > 100 µM
RPMI-8226 leukemia
  TGI: > 100 µM
CAKI-1 renal
  TGI: > 100 µM
HCT-15 colon
  TGI: > 100 µM
SN12C renal
  TGI: > 100 µM
HCC-2998 colon
  TGI: > 100 µM
NCI/ADR-RES ovarian
  TGI: > 100 µM
MDA-MB-435
  TGI: > 100 µM
TK-10 renal
  TGI: > 100 µM
UO-31 renal
  TGI: > 100 µM
MDA-MB-231 breast
  TGI: > 100 µM
SK-OV-3 ovarian
  TGI: > 100 µM
NCI-H23 lung
  TGI: > 100 µM
SW-620 colon
  TGI: > 100 µM
OVCAR-8 ovarian
  TGI: > 100 µM
PC-3 prostate
  TGI: > 100 µM
HL-60(TB) leukemia
  TGI: > 100 µM
NCI-H522 lung
  TGI: > 100 µM
SR leukemia
  TGI: > 100 µM
T-47D breast
  TGI: > 100 µM
IGROV1 ovarian
  TGI: > 100 µM
COLO 205 colon
  TGI: > 100 µM
MALME-3M melanoma
  TGI: > 100 µM
SF-268 CNS
  TGI: > 100 µM
SK-MEL-2 melanoma
  TGI: > 100 µM
NCI-H226 lung
  TGI: > 100 µM
CCRF-CEM leukemia
  TGI: > 100 µM
SF-539 CNS
  TGI: > 100 µM
OVCAR-3 ovarian
  TGI: > 100 µM
RXF 393 renal
  TGI: > 100 µM
SNB-19 CNS
  TGI: > 100 µM
ACHN renal
  TGI: > 100 µM
K-562 leukemia
  TGI: > 100 µM
M14 melanoma
  TGI: > 100 µM
LOX IMVI melanoma
  TGI: > 100 µM
EKVX NSCLC
  TGI: > 100 µM
U251 CNS
  TGI: > 100 µM
MDA-N
  TGI: > 100 µM
UACC-257 melanoma
  TGI: > 100 µM
BT-549 breast
  TGI: > 100 µM
MOLT-4 leukemia
  TGI: > 100 µM
HCT-116 colon
  TGI: > 100 µM
HS 578T breast
  TGI: > 100 µM
A549 NSCLC
  TGI: > 100 µM
KM12 colon
  TGI: > 86.4 µM
SK-MEL-5 melanoma
  TGI: > 100 µM
